Assay results published in the supplement of paper PMC11208160.

Assay: recombinant barcode read abundance after kanamycin selection (control-corrected) (log10(CPM+1)); higher = more efficient recombination; sequences stand for … in AGTGCAGAGAAAATCGGCCAGTTTTCTCTGCCTGCAGTCCGCATGCCGT…AGATTTATGCAGCGGACTGCCTTTCTCCCAAAGTGATAAACCGGACAGTATCATGGACCGGTTTTCCCGGTAATCCGTATTTGCAAGGTTGGTTTCACT; site = the 11-nt target
Method in brief: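 Each value is log10(CPM+1). It describes recombination efficiency, taken as averaged, control-corrected counts per million of barcodes at recombinant junctions. The pooled E. coli library paired targets with IS621 bridge RNA target-binding loops, was co-electroporated with a donor plasmid, and was plated twice on chloramphenicol/ampicillin LB agar (control) and twice on chloramphenicol/ampicillin/kanamycin containing 0.1 mM IPTG.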
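Also: IS621 recombinase and bridge RNA in Escherichia coli cells.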

| Sequence | recombinant barcode read abundance (log10) |
| --- | --- |
| CGGTGTCCTTGGGTTCTAACCTGTTGCTA (site CGGCGTCCTTA) | 0.586 |
| CGGTGTCCTTGGGTTCTAACCTGTTGCTA (site CGGGGTCCTTA) | 0.225 |
| CGGTGTCCTTGGGTTCTAACCTGTTGCTA (site CGGTGTCCTTA) | 1.33 |
| CGGTTTCCTTGGGTTCTAACCTGTTGCCT (site CGGTTTCCTAG) | 0.848 |
| CGGTTTCCTTGGGTTCTAACCTGTTGCCT (site CTATTTCCTAG) | 0.0218 |
| CGTAAGTCTTGGGTTCTAACCTGTTGCCT (site CGTAAGTCTAG) | 1.11 |
| CGTAAGTCTTGGGTTCTAACCTGTTGCCT (site TATAAGTCTAG) | 0.0991 |
| CGTACGACTTGGGTTCTAACCTGTTGCAT (site CGTACGACTAT) | 0.215 |
| CGTACGACTTGGGTTCTAACCTGTTGCAT (site CGTCCGACTAT) | 0.451 |
| CGTACGACTTGGGTTCTAACCTGTTGCAT (site CGTGCGACTAT) | 0.236 |
| CGTACGACTTGGGTTCTAACCTGTTGCAT (site CGTTCGACTAT) | 0.0932 |
| CGTAGGTCTTGGGTTCTAACCTGTTGCCT (site CGTAGGTCTAG) | 0.101 |
| CGTAGGTCTTGGGTTCTAACCTGTTGCCT (site CTTAGCTCTAG) | 0.0284 |
| CGTCCTCCTTGGGTTCTAACCTGTTGCAT (site CCGCCTCCTAT) | 0.00736 |
| CGTCCTCCTTGGGTTCTAACCTGTTGCAT (site CGTCCTCCTAT) | 0.089 |
| CGTCCTGCTTGGGTTCTAACCTGTTGCTT (site CGTCCTGCTAA) | 0.527 |
| CGTCCTGCTTGGGTTCTAACCTGTTGCTT (site TAGGGGACTTT) | 0.0676 |
| CGTCGCACTTGGGTTCTAACCTGTTGCCT (site CATCGCACTAG) | 0.234 |

| Sequence | recombinant barcode read abundance (log10) |
| --- | --- |
| CGTCGCACTTGGGTTCTAACCTGTTGCCT (site CCTCGCACTAG) | 0.029 |
| CGTCGCACTTGGGTTCTAACCTGTTGCCT (site CGTCGCACTAG) | 0.0318 |
| CGTCGCACTTGGGTTCTAACCTGTTGCCT (site CTTCGCACTAG) | 0.164 |
| CGTCGTACTTGGGTTCTAACCTGTTGCCT (site CGACGTACTAG) | 0.504 |
| CGTCGTACTTGGGTTCTAACCTGTTGCCT (site CGCCGTACTAG) | 0.0657 |
| CGTCGTACTTGGGTTCTAACCTGTTGCCT (site CGGCGTACTAG) | 0.0235 |
| CGTCGTACTTGGGTTCTAACCTGTTGCCT (site CGTCGTACTAG) | 0.136 |
| CGTCTCCCTTGGGTTCTAACCTGTTGCCT (site CCTCTGCCTAG) | 0.0171 |
| CGTCTCCCTTGGGTTCTAACCTGTTGCCT (site CGTCTCCCTAG) | 0.451 |
| CGTGTAACTTGGGTTCTAACCTGTTGCCT (site CGTATATCTAG) | 0.13 |
| CGTGTAACTTGGGTTCTAACCTGTTGCCT (site CGTGTAACTAG) | 0.332 |
| CGTTCGACTTGGGTTCTAACCTGTTGCAT (site CGTACGACTAT) | 0.131 |
| CGTTCGACTTGGGTTCTAACCTGTTGCAT (site CGTCCGACTAT) | 0.0713 |
| CGTTCGACTTGGGTTCTAACCTGTTGCAT (site CGTGCGACTAT) | 0.174 |
| CGTTCGACTTGGGTTCTAACCTGTTGCAT (site CGTTCGACTAT) | 0.133 |
| CGTTCGACTTGGGTTCTAACCTGTTGCCT (site CGTTCAACTAG) | 0.0692 |
| CGTTCGACTTGGGTTCTAACCTGTTGCCT (site CGTTCCACTAG) | 0 |
| CGTTCGACTTGGGTTCTAACCTGTTGCCT (site CGTTCGACTAG) | 0.0748 |
